Data published in ChEMBL document CHEMBL1201862, “PubChem BioAssay data set” (2004).
The source made the active and inactive calls.

Legend:
cells [1] = test: cells
Mucolipin-3 = target: T1, Mucolipin-3 (Homo sapiens, UniProt Q8TDD5); test: Dose response cell-based high-throughput screening assay for agonists of the transient receptor potential channel ML3 (TRPML3). [Related pubchem assays: 1526, 1424, 1448 ]; format: functional
T1 sequence (Q8TDD5 whole entry): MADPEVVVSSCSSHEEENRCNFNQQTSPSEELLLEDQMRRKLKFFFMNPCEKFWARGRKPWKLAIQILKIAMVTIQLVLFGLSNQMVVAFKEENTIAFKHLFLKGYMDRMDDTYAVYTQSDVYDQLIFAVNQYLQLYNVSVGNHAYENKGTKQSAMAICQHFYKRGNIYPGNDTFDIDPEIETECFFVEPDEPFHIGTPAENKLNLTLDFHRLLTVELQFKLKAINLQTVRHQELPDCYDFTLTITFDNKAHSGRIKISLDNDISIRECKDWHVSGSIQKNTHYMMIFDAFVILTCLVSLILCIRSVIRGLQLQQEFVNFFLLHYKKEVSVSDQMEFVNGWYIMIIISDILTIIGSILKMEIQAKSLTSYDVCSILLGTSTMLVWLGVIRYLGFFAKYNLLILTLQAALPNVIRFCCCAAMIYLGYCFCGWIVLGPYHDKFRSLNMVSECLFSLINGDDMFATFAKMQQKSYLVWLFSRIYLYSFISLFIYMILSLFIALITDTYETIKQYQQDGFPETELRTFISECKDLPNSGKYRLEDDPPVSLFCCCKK

Ion channel NompC = Ion channel NompC (Danio rerio, UniProt Q7T1G6); test: Fluorescence counterscreen assay for TRPML3 agonists: dose response cell-based high-throughput screening assay to identify agonists of the transient receptor potential channel N1 (TRPN1). [Related pubchem assays: 1526, 1424, 1448 ]; format: functional
Chain of Ion channel NompC (Q7T1G6 whole entry): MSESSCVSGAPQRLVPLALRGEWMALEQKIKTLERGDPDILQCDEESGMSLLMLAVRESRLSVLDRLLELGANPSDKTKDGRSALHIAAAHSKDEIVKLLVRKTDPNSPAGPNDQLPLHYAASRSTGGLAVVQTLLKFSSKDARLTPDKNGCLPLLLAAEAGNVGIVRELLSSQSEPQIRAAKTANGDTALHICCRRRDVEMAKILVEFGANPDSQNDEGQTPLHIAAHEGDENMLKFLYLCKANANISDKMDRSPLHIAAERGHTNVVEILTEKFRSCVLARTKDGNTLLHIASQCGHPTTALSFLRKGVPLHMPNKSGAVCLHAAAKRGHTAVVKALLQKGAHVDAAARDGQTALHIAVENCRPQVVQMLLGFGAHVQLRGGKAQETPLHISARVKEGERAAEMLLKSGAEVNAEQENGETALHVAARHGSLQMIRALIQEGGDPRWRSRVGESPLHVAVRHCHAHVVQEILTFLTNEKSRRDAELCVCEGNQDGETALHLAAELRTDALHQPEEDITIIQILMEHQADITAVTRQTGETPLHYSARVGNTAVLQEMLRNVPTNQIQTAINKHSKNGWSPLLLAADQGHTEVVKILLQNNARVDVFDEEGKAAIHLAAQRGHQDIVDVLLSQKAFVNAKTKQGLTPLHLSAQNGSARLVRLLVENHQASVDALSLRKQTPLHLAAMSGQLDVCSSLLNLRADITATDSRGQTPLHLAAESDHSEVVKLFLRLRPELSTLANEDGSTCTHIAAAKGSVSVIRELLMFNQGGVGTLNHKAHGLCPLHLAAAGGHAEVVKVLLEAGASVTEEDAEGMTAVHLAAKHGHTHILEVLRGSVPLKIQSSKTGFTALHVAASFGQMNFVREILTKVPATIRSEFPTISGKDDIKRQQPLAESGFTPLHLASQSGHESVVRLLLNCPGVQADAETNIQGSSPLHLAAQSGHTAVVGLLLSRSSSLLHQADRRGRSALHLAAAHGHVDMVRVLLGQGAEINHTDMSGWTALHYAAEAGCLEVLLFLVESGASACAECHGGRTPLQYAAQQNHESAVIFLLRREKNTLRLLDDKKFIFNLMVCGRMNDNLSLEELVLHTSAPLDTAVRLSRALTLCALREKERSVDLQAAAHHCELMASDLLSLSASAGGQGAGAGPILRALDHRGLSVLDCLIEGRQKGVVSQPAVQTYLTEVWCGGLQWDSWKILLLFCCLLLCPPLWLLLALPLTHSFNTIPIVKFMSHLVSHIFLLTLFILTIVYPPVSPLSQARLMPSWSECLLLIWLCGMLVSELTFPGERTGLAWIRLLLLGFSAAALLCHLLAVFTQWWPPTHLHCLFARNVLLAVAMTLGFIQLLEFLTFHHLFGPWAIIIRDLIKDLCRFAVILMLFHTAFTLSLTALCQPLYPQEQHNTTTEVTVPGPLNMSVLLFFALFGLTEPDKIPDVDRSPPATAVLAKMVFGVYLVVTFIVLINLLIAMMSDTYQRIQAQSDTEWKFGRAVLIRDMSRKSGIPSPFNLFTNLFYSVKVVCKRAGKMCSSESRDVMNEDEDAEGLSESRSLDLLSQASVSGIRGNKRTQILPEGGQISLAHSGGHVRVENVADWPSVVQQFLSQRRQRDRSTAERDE

[2] = target: NAD-dependent protein deacylase sirtuin-5, mitochondrial (Homo sapiens, UniProt Q9NXA8); test: SIRT5 desuccinylase inhibitors, dose response, biochemical, fluorescence imaging, cherry-pick, set 5 (AID 720591);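 note: desuccinylation of succinyl peptide AMC substrate read as fluorescence after trypsin release; potency of inhibitors that lower fluorescence and may act on trypsin instead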
Chain of NAD-dependent protein deacylase sirtuin-5, mitochondrial (Q9NXA8 whole entry): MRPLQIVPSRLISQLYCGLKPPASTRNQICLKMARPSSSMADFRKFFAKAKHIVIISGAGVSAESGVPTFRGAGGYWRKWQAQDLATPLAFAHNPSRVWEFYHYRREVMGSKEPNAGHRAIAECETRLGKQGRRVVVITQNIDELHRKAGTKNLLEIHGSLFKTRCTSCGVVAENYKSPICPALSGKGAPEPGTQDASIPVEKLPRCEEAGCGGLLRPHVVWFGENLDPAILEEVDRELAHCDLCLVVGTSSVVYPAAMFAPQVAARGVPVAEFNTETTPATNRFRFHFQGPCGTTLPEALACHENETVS

[3] = system: Streptococcus sp. 'group A'; test: growth inhibition of control SK(-) GAS strain, dose response, counter-screen for streptokinase expression inhibitor project, luminescence, kanamycin, BacTiterGlo, confirmation (AID 1900); format: functional, organism-based
[4] = HEp-2 cell cytotoxicity, dose response, cytotoxicity control for RSV inhibitor project, HTS (AID 2410); format: functional; details: human respiratory syncytial virus
Streptococcus = test: Group A Streptococcus viability loss, dose response, counter-screen for streptokinase expression inhibitor project, luminescence, BacTiterGlo (AID 1915); format: functional, organism-based;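 note: potency for reduction of bacterial viability or growth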
Streptokinase A = target: T2, Streptokinase A (Streptococcus pyogenes serotype M1, UniProt P10520); test: S. pyogenes streptokinase expression inhibitors, potency, dose response, plasminogen activation absorbance, OD405 (AID 1914); format: functional, Streptococcus pyogenes M1 GAS;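 note: secreted streptokinase activity via plasminogen activation per viability signal from cell pellet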
T2 sequence (P10520 whole entry): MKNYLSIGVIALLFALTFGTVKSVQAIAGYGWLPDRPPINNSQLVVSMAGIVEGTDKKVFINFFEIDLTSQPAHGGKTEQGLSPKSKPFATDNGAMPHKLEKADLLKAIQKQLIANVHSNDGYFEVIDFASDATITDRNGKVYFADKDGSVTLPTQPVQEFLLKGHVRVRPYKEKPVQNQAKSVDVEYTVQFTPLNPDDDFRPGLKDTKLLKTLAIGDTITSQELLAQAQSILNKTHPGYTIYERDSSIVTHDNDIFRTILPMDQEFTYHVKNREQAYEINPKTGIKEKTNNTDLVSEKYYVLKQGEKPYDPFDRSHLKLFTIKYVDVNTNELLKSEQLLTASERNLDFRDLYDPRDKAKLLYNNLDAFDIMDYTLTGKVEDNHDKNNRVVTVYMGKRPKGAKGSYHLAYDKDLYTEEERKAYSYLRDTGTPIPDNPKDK

[5] = target: Glyceraldehyde-3-phosphate dehydrogenase (Homo sapiens, UniProt P04406)
Chain of Glyceraldehyde-3-phosphate dehydrogenase (P04406 whole entry): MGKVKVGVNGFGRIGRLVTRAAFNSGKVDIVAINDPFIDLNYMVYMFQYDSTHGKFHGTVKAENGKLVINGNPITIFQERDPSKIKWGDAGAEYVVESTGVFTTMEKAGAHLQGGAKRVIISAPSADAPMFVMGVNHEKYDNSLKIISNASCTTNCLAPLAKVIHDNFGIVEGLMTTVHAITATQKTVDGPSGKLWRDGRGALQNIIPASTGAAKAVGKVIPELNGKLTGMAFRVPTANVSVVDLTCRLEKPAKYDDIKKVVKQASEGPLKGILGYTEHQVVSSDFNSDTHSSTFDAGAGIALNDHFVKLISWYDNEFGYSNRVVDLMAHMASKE

Leucine aminopeptidase = target: T3, Leucine aminopeptidase (Plasmodium falciparum 3D7, UniProt Q8IL11); test: P. falciparum M17LAP inhibitors, primary screen, biochemical, fluorogenic H-Leu-NHMec substrate, 1536-well (AID 1619); format: functional
T3 sequence (Q8IL11 whole entry): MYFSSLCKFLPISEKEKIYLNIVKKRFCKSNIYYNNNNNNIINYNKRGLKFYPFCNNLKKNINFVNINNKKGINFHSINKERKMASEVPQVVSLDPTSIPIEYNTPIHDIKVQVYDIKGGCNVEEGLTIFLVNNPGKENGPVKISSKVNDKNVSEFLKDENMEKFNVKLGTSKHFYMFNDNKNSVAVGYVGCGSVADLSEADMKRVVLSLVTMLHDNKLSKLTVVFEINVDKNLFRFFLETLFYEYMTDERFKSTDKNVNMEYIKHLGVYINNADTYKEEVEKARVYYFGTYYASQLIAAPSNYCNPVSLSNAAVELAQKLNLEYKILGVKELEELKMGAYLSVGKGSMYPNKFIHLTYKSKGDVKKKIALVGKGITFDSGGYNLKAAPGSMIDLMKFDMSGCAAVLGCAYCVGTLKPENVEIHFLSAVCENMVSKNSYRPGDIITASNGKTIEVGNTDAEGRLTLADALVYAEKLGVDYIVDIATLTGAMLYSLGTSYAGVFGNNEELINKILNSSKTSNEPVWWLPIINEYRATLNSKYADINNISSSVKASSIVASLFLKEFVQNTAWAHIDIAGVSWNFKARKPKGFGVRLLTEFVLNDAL

[6] = target: FAD-linked sulfhydryl oxidase ALR (Homo sapiens, UniProt P55789); test: inhibitors of human ALR sulfhydryl oxidase, dose response, biochemical, H2O2 detection, luminescence, cherry-pick (AID 493248)
Chain of FAD-linked sulfhydryl oxidase ALR (P55789 whole entry): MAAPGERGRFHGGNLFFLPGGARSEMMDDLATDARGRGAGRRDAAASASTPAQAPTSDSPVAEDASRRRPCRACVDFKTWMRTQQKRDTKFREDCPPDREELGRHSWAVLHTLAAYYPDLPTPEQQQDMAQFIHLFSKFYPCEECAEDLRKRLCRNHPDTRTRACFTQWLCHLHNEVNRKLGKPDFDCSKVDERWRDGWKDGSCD

[7] = target: T4, DNA repair protein RAD52 homolog (Homo sapiens, UniProt P43351); format: functional, biochemical
T4 sequence (P43351 whole entry): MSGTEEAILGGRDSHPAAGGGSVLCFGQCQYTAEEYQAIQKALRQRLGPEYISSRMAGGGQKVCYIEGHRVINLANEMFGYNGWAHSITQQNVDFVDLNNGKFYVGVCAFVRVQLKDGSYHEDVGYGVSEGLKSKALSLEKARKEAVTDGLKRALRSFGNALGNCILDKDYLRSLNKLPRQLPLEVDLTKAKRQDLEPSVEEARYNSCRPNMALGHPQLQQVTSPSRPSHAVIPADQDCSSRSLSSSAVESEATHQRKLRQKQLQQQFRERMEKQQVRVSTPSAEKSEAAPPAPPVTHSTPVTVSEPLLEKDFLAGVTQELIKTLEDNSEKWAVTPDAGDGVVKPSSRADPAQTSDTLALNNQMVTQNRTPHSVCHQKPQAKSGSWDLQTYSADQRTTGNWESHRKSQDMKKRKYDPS

[8] = target: T5, Calpain-2 catalytic subunit (Sus scrofa, UniProt P43367); test: pig calpain II inhibitor potency, dose response, biochemical, fluorogenic peptide substrate (AID 1420); format: functional
T5 sequence (P43367 whole entry): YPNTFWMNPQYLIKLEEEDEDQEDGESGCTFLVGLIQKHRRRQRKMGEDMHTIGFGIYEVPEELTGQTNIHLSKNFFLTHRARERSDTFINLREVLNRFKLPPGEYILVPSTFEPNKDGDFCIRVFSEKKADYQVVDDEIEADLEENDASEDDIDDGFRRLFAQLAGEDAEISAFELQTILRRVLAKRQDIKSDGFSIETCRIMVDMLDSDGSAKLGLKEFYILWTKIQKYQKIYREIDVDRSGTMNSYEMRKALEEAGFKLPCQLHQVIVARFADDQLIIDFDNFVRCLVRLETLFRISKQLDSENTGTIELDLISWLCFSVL

[9] = THP-1 cell cytotoxicity, dose response, cytotoxicity control for Vif-APOBEC3G degradation inhibitor project, THP-1 cells (AID 1117359); format: functional; details: Human immunodeficiency virus 1, THP-1
[10] = M. tuberculosis H37Rv growth inhibitors, H37Rv strain (AID 1626); format: functional
Vero = test: cells; format: functional, cell-based; details: Chlorocebus sabaeus
[11] = target: T6, Mannose-6-phosphate isomerase (Homo sapiens, UniProt P34949); test: human PMI inhibitors, high substrate, primary screen, biochemical, fluorescence intensity, high mannose 6-phosphate (AID 1220)
T6 sequence (P34949 whole entry): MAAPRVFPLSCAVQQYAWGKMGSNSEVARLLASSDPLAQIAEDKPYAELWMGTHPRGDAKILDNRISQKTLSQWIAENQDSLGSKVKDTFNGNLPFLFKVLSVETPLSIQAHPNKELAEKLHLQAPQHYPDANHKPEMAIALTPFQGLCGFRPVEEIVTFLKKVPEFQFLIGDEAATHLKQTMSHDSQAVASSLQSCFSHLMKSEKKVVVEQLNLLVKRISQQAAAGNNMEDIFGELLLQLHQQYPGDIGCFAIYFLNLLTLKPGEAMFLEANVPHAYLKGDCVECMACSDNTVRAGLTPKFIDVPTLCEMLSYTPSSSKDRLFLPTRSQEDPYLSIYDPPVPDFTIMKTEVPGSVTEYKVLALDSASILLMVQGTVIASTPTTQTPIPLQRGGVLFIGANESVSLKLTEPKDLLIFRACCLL

cells [12] = format: functional, cell-based
[13] = Luminescence Cell-Based Dose Confirmation HTS to Identify Activators of 5'UTR Stem-Loop Driven Alpha-Synuclein mRNA Translation in H4 Neuroglioblastoma Cells. [Related pubchem assays: 1829 (Project Summary), 1814 (Primary HTS)]; format: functional
cells [14] = format: functional, cell-based; remark: listed apart in the source
[15] = target: T7, Trace amine-associated receptor 1 (Homo sapiens, UniProt Q96RJ0); test: Fluorescence-based cell-based high throughput dose response assay to identify agonists of the human trace amine associated receptor 1 (TAAR1).; format: functional
T7 sequence (Q96RJ0 whole entry): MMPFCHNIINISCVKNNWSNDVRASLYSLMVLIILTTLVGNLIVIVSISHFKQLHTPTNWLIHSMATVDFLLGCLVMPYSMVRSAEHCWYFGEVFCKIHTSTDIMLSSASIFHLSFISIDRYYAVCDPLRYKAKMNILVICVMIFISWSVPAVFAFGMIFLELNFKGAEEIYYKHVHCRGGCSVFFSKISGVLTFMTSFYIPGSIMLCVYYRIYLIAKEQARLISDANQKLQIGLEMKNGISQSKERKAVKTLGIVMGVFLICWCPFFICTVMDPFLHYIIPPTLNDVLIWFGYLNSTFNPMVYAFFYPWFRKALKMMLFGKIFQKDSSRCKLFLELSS

[16] = Luminescence Cell-Based Dose Response HTS to Identify Activators of Luciferase Translation or Activity in H4 […] Cells. [Related pubchem assays: 1829 (Project Summary), 1814 (Primary HTS)]; format: functional
H4 = test: Luminescence Cell-Based Dose Response HTS to Identify Activators of 5'UTR Stem-Loop Driven Prion Protein mRNA Translation in H4 Neuroglioblastoma Cells. [Related pubchem assays: 1829 (Project Summary), 1814 (Primary HTS)]; format: functional; details: Homo sapiens
[17] = target: T7, Trace amine-associated receptor 1; test: Counterscreen for agonists of the human trace amine associated receptor 1 (hTAAR1): Fluorescence-based cell-based high throughput dose response assay to identify hTAAR1 agonist that also desensitize TAAR1 receptor response.; format: functional

COC(=O)c1ccc2[nH]ccc2c1
IC50 (cells [1]): 42.7 µM (active)

Cc1cc(C)c(S(=O)(=O)Nc2ccccc2-c2ccccc2)c(C)c1
EC50 (Mucolipin-3): 5.34 µM (active) | EC50 (Ion channel NompC): > 29.9 µM (not active)

CN(C)C(CNC(=O)CCNC(=O)c1ccc(Cl)cc1)c1ccco1 (stereo unspecified)
AC50 [2]: > 30 µM (inactive)

Oc1ccccc1-c1nc2c3ccccc3c3ccccc3c2[nH]1
EC50 [3]: 2.55 µM (active) | CC50 [4]: 15.3 µM (active) | EC50 (Streptococcus): 12 µM (active) | IC50 (cells [1]): 11 µM (active) | EC50 (Streptokinase A): 4.11 µM (active)

Cc1ccc(S(=O)(=O)NC2CCCCC2)c2nsnc12
EC50 (Mucolipin-3): 8.34 µM (active) | EC50 (Ion channel NompC): > 29.9 µM (not active)

COC(=O)[C@H](Cc1c[nH]c2ccccc12)NC(=O)NCc1ccc(OC)c(OC)c1
AC50 [2]: > 30 µM (inactive)

COc1cccc(N2C(=O)C(Cl)=C(N3CCN(C/C=C/c4ccccc4)CC3)C2=O)c1
IC50 [5]: > 50 µM (inconclusive)

CC1=CC(C)(C)N(C(=O)CN2C(=O)c3ccccc3C2=O)c2ccccc21
EC50 (Mucolipin-3): 1.45 µM (active) | EC50 (Ion channel NompC): > 29.9 µM (not active)

CC1CCN(CC(=O)Nc2ccc(N3CCCCCC3)cc2)CC1
IC50 (Leucine aminopeptidase): 13 µM (active) | AC50 [6]: 448 nM (active) | AC50 [7]: 18 µM (active)

CCOc1cc(CNc2ccc(O)cc2)cc(Br)c1OCc1ccccc1F
IC50 [8]: 9.81 µM (not active) | CC50 [9]: 27.8 µM (active)

O=C(COC(=O)c1ccccc1Br)Nc1ccccc1F
IC50 [10]: > 100 µM (active)

Cc1cc(NC(=O)C(C)SCC(=O)N(Cc2ccccc2)c2ccccc2)no1 (stereo unspecified)
CC50 [4]: 29.9 µM (active) | IC50 (Vero): > 25 µM (active) | IC50 (cells [1]): 39.6 µM (active)

Oc1nc(Cc2ccc(F)cc2)nc2scc(-c3ccc(F)cc3)c12
AC50 [2]: 18 µM (active)

Cc1c(C(=O)NC(C)C)oc2c1-c1n[nH]cc1CC2
IC50 [11]: > 50 µM (not active)

COc1ccc(OC(=O)NCCc2ccccc2)cc1
EC50 (cells [12]): > 29.9 µM (inactive) | EC50 [13]: 29 µM (active) | IC50 (cells [14]): > 29.9 µM (inactive) | EC50 [15]: 0.535 µM (active) | EC50 [16]: 49 µM (active) | EC50 (H4): 16.1 µM (active) | IC50 [17]: > 29.9 µM (inactive)

Cn1cccc1/C=C1/C(=O)NC(=O)N(Cc2ccccc2)C1=O
CC50 [9]: > 40 µM (active)

COc1ccccc1CCNC(=O)C(=O)NCC1OCCN1S(=O)(=O)c1ccc(C)cc1 (stereo unspecified)
EC50 (cells [12]): > 29.9 µM (inactive) | IC50 (cells [14]): > 29.9 µM (inactive) | EC50 [15]: 2.51 µM (active) | IC50 [17]: 7.91 µM (active)

C/C(N)=C(/C#N)C(=O)COC(=O)c1ccccc1Cc1ccccc1
CC50 [4]: 32.2 µM (active) | IC50 (cells [1]): 45 µM (active)

O=C(/C=C/C(=O)N1CCc2ccccc2C1)N1CCc2ccccc2C1
EC50 (cells [12]): > 29.9 µM (inactive) | IC50 (cells [14]): > 29.9 µM (inactive) | EC50 [15]: 1.14 µM (active) | IC50 [17]: 4.67 µM (active)

O/N=C/c1ccc(-c2cc(Cl)ccc2Cl)o1
IC50 [10]: > 100 µM (active)

Nc1nnc(SCc2ccc(F)cc2)s1
IC50 [10]: > 100 µM (active)
